The values below are quoted from earlier work in patent US20240108610A1, “RECTAL ADMINISTRATION OF ROFLUMILAST FOR THE TREATMENT OF CROHN'S DISEASE” (King Abdulaziz University, priority 2022, published 2024).

The conditions of data set [1]: oral; cited from earlier work.
The test system of data set [2] is ovalbumin-induced asthmatic mice. The settings on record: inhaled; cited from earlier work.
Data set [3] has as its system dextran sulphate sodium (DSS)-induced colitis. The note with it: oral, 1 or 5 mg·kg−1·day−1, mice; cited from earlier work.
For data set [4], the system named is DSS-induced ulcerative colitis. The note with it: 5 mg/kg, male Wistar rats, cited from earlier work.
For data set [5], the system named is TNBS-induced reduction in colon length. The note with it: 1 and 5 mg-kg−1·day−1; another study (13); cited from earlier work.

Each structure is given as a SMILES string.

For `O=C(Nc1c(Cl)cncc1Cl)c1ccc(OC(F)F)c(OCC2CC2)c1` [roflumilast], the side effects entry in data set [1] was “weight loss, headache, nausea, emesis, and diarrhea”. Besides, in data set [2], the “inflammation and histopathological changes” value is listed as “substantially improved”; the “numbers of neutrophils, eosinophils, and macrophages in the bronchoalveolar lavage fluid” value is “decreased”. For the same compound, in data set [3], the Colonic length result is “dose-dependently improved”; the “colonic TNF-α production” value was “dose-dependently improved”; the “disease clinical score (weight loss, stool consistency, and hemorrhage)” value was “dose-dependently improved”; the histological score entry is listed as “not improved”. In addition, in data set [4] (compared with the DSS group), the colon length entry is on record as “preserved”, the histological scores entry is on record as “improved”, the severity of colitis entry was “diminished” and the weight loss result is on record as “decreased”. For the same compound, the “colon concentrations of TNF-α and NO, MPO activity, and inducible nitric oxide synthase gene expression” value in data set [4] is given as “decreased”. Moreover, in data set [5], the “TNBS-induced reduction in colon length” value is “partially reverses” and the “elevated colonic concentration of TNF-α” value is “decreases”.
